Assay results as given in the CheMixHub viscosity set.

Assay: xn = mol fraction of the nth substance listed

CC(C)C#N + Clc1ccccc1
viscosity [mPa·s], 101 kPa
Details	x2 = 0.1028	x2 = 0.2026	x2 = 0.3007	x2 = 0.4004	x2 = 0.5004	x2 = 0.6004	x2 = 0.6996	x2 = 0.7998	x2 = 0.8999
303.15 K	0.487	0.513	0.537	0.562	0.585	0.61	0.636	0.663	0.689
308.15 K	0.456	0.48	0.503	0.525	0.545	0.569	0.592	0.616	0.643

CCCCCCCCCCC + CCCCCCC
viscosity [mPa·s]
Details	100 kPa	101.33 kPa
297.15 K, x2 = 0.5	–	0.6901
298.15 K, x2 = 0.1084	–	0.9818
298.15 K, x2 = 0.2093	–	0.8983
298.15 K, x2 = 0.3019	–	0.8173
298.15 K, x2 = 0.4051	–	0.7452
298.15 K, x2 = 0.5067	–	0.672
298.15 K, x2 = 0.6076	–	0.6072
298.15 K, x2 = 0.7041	–	0.5479
298.15 K, x2 = 0.8052	–	0.4894
298.15 K, x2 = 0.8998	–	0.4335
302.98 K, x2 = 0.8	0.4886	–
303.09 K, x2 = 0.5	0.6364	0.6364
312.85 K, x2 = 0.5	–	0.563
323.04 K, x2 = 0.5	0.5009	0.5009

CCCCCCCCCCC + CCCCCCCCO
viscosity [mPa·s], 100 kPa
Details	x1 = 0.0994	x1 = 0.2003	x1 = 0.2994	x1 = 0.3986	x1 = 0.498	x1 = 0.5983	x1 = 0.6948	x1 = 0.7982	x1 = 0.899
293.15 K	6.831	5.141	3.839	3.004	2.374	1.965	1.669	1.463	1.271
298.15 K	5.749	4.369	3.31	2.622	2.109	1.77	1.542	1.349	1.164
303.15 K	4.874	3.746	2.878	2.322	1.929	1.622	1.402	1.233	1.071
308.15 K	4.161	3.23	2.519	2.063	1.725	1.473	1.281	1.132	0.987
313.15 K	3.577	2.805	2.223	1.847	1.559	1.341	1.175	1.043	0.915
318.15 K	3.091	2.455	1.978	1.67	1.413	1.224	1.079	0.963	0.848
323.15 K	2.694	2.167	1.774	1.507	1.286	1.123	0.996	0.892	0.792

CC(=O)[O-].[Na+] + O
viscosity [mPa·s], 101.33 kPa
Details	293.15 K	298.15 K	303.15 K
x1 = 0.0046	1.082	0.965	0.863
x1 = 0.0112	1.217	1.083	0.968
x1 = 0.0172	1.355	1.205	1.075
x1 = 0.0215	1.466	1.302	1.16
x1 = 0.0287	1.673	1.484	1.32
x1 = 0.0343	1.857	1.645	1.462
x1 = 0.0402	2.076	1.836	1.629
x1 = 0.0467	2.35	2.076	1.839
x1 = 0.0505	2.529	2.232	1.975
x1 = 0.0572	2.883	2.54	2.244
x1 = 0.0652	3.379	2.97	2.619

CCOC(=O)CCC(=O)OCC + CCCO
100 kPa
Details	viscosity [mPa·s]
293.15 K, x1 = 0.3998	1.875
313.15 K, x1 = 0.4999	1.325
318.15 K, x1 = 0.8997	1.545
323.15 K, x1 = 0.3998	1.065

CCOC(=O)CCC(=O)OCC + CC(C)CO
Details	viscosity [mPa·s]
303.15 K, 100 kPa, x1 = 0.0999	2.135

CCCCCCCCCCC + CCCCCCCCCCO
viscosity [mPa·s], 100 kPa
Details	x1 = 0.1003	x1 = 0.2003	x1 = 0.3005	x1 = 0.3972	x1 = 0.4989	x1 = 0.5997	x1 = 0.7007	x1 = 0.8	x1 = 0.8987
293.15 K	10.47	7.7	5.667	4.374	3.193	2.542	1.992	1.626	1.378
298.15 K	8.685	6.471	4.833	3.775	2.8	2.254	1.793	1.486	1.256
303.15 K	7.267	5.479	4.152	3.283	2.477	2.015	1.628	1.368	1.154
308.15 K	6.125	4.678	3.591	2.873	2.202	1.814	1.508	1.252	1.06
313.15 K	5.2	4.018	3.127	2.533	1.97	1.644	1.376	1.149	0.979
318.15 K	4.447	3.475	2.741	2.26	1.773	1.518	1.256	1.058	0.908
323.15 K	3.825	3.02	2.418	2.006	1.655	1.382	1.152	0.975	0.846

[I-].[Rb+] + O
310.15 K, 101 kPa
Details	viscosity [mPa·s]
x1 = 0.000182	0.6811
x1 = 0.000907	0.69
x1 = 0.001816	0.7025
x1 = 0.002695	0.7138
x1 = 0.003679	0.7268
x1 = 0.005197	0.7469
x1 = 0.005988	0.7573

OCCCO + CC(C)=O
viscosity [mPa·s], 100 kPa
Details	x2 = 0.1008	x2 = 0.1914	x2 = 0.3021	x2 = 0.4009	x2 = 0.51	x2 = 0.6004	x2 = 0.7	x2 = 0.7983	x2 = 0.9002
293.15 K	29.2	17.28	9.162	5.229	2.942	1.764	1.321	1.18	1.04
298.15 K	23.55	14.22	7.721	4.496	2.567	1.583	1.14	1.038	0.9174
303.15 K	19.21	11.82	6.554	3.894	2.257	1.428	1.031	0.9173	0.8122
308.15 K	15.86	9.922	5.609	3.395	1.997	1.293	0.9331	0.8138	0.722
313.15 K	13.22	8.416	4.85	2.979	1.78	1.175	0.8442	0.7248	0.6442
318.15 K	11.13	7.191	4.215	2.633	1.597	1.07	0.7632	0.6479	0.5768
323.15 K	9.46	6.198	3.679	2.343	1.433	0.9737	0.6946	0.5811	0.5183

CN1CCC[C@H]1c1cccnc1 + ClC(Cl)C(Cl)Cl
viscosity [mPa·s], 101.33 kPa
Details	x1 = 0.1547	x1 = 0.2569	x1 = 0.3706	x1 = 0.5146	x1 = 0.5995	x1 = 0.6384	x1 = 0.6803	x1 = 0.7501	x1 = 0.868
298.15 K	2.625	3.353	4.121	4.912	5.253	5.353	5.203	5.031	4.545
323.15 K	1.541	1.905	2.184	2.425	2.53	2.632	2.568	2.497	2.342

CCOC(=O)CCC(=O)OCC + CCCC(=O)OCC
Details	viscosity [mPa·s]
303.15 K, 100 kPa, x2 = 0.3003	1.535

CC(C)C#N + Cc1ccccc1
viscosity [mPa·s], 101 kPa
Details	x2 = 0.1025	x2 = 0.2009	x2 = 0.2987	x2 = 0.4001	x2 = 0.4983	x2 = 0.6008	x2 = 0.6993	x2 = 0.801	x2 = 0.8983
303.15 K	0.463	0.465	0.468	0.474	0.481	0.49	0.499	0.509	0.517
308.15 K	0.434	0.437	0.439	0.445	0.45	0.46	0.468	0.478	0.486

O=c1cc[nH]c(=O)[nH]1 + O
viscosity [mPa·s]
Details	293.15 K	298.15 K	303.15 K	308.15 K	318.15 K
101 kPa, x1 = 9e-05	–	0.879	–	0.7172	0.5784
101 kPa, x1 = 0.00018	–	0.9132	–	0.7313	0.5871
101 kPa, x1 = 0.00027	–	0.9292	–	0.7541	0.6092
101 kPa, x1 = 0.00036	–	0.941	–	0.7821	0.6272
101.3 kPa, x1 = 0.000113	1.004	–	0.801	–	–
101.3 kPa, x1 = 0.000164	–	0.892	–	0.721	–
101.3 kPa, x1 = 0.000177	1.005	0.894	0.802	–	–
101.3 kPa, x1 = 0.0002602	–	0.894	–	–	0.599
101.3 kPa, x1 = 0.0002747	1.006	–	0.803	–	–
101.3 kPa, x1 = 0.0003447	1.007	0.896	0.804	–	–
101.3 kPa, x1 = 0.0004315	–	0.896	–	–	0.601
101.3 kPa, x1 = 0.0004415	–	0.896	–	0.725	0.601
101.3 kPa, x1 = 0.0004586	1.008	0.897	0.805	–	–
101.3 kPa, x1 = 0.0004739	–	0.897	–	0.725	0.601
101.3 kPa, x1 = 0.0005438	1.009	–	0.806	–	–

NC=O + c1ccncc1
298.15 K, 101 kPa
Details	viscosity [mPa·s]
x1 = 0.129	1.064
x1 = 0.1798	1.16
x1 = 0.2662	1.365
